In patent US20130136722A1, “Methods of Ex Vivo Expansion of Blood Progenitor Cells, and Generation of Composite Grafts” (The Board of Trustees of The University of Illinois, priority 2011, published 2013):
Values joined by “and” are separate entries in the source; they are usually repeats but may differ in a detail not shown here. Equal entries are not always repeated.

Key:
[1] = test system: cord blood-derived CD34+CD90+ cells; assay: Ex vivo expansion culture of cord blood CD34+ cells with chromatin modifying agents, flow cytometry for CD34/CD90; type: cell-based, human
Text: Freshly collected human CB was obtained from the New York Blood Center (New York, N.Y.) according to Institutional Review Board guidelines. Low density CB cells (<1.077 g/ml) were obtained by density centrifugation on Ficoll-Paque PLUS (GE Healthcare Bio-Sciences AB, Uppsala, Sweden), from which CD34^+ cells were immunomagnetically isolated by the MACS CD34 progenitor isolation kit (Miltenyi Biotech, Inc., Auburn, Calif.) as described in Araki et al., 2009, Exp Hematol. 37: 1084-1095). The purity of isolated CD34^+ cells routinely ranged from 90-99%.
CD34^+ cell expansion culture with or without CMA was carried out as described (Araki et al., 2009, Id.; Araki et al. 2006, Exp Hematol. 34: 140-149; Araki et al, 2007, Blood 109: 3570-3578.). All other HDAC inhibitors including 1 mM VPA (Sigma), TSA (5 ng/mL), NA (5 mM) or 5 μM of Suberoylanilide hydroxamic acid (SAHA; BioVision, Inc. Mountain View, Calif.) was added twice at 0 hr and after changing media at 48 hrs of culture. HDAC inhibitors were added only once (48 hr) when used in combination with a DNMT inhibitor as described (Araki et al., 2009, Id.; Araki et al., 2006, Id.; Himburg et al., 2010, Nat. Med. 16: 475-482).
Flow cytometric analysis was carried out as described (Araki et al., 2009, Id.; Araki et al. 2006, Id.; Araki et al, 2007, Id.). All antibodies were purchased from BD Bioscience (San Jose, Calif.). All analyses were paired with the corresponding matched isotype control and at least 10,000 live cells were acquired for each analysis (CellQuest software, Becton Dickinson).
In order to compare the effects of various chromatin modifying agents (CMAs) on the degree of expansion of cord blood-derived, primitive subpopulation of CD34^+ cells, valproic acid (VPA), trichostatin A (TSA), nicotinic acid (NA), suberoylanilide hydroxamic acid (SAHA) or 5-aza-2′-deoxycytidine (5azaD) as single agents or in combination was tested in vitro. The results of fluorescence-activated cell sorting experiments performed on cord blood-derived CD34^+/CD90^+ cells treated with CMA agents is shown in FIG. 1A.

[2] = test system: colony-forming cells (CFC); assay: Colony-forming cell (CFC) assay of CMA expanded CB cells; type: cell-based, human; conditions: for CFC PE (%) (Colony Forming Cell Plating Efficiency): mean ± SEM of three independent experiments
Method: Colony-forming cell (CFC) were assayed by plating 5×10^2 cells per dish in semisolid media and were counted after 14 days as described (Araki et al., 2009, Id.). The number of cobble stone area-forming cell (CAFC) was quantitated in primary and expanded CD34+ cells by plating in limiting dilution onto irradiated M2-10B4 stromal cells as described (Araki et al., 2009, Id.; Conneally et al., 1997, Proc. Natl. Acad. Sci. USA. 94: 9836-9841; Taswell, 1981, J. Immunol. 126: 1614-1619).
In order to determine the a correlation between expansion of CD34^+CD90^+ cells and their functional potential as pluripotent hematopoietic stem cells, in vitro functional assays were performed, including assessment of colony-forming cells (CFC), a short-term assay, and cobblestone-area forming cells (CAFC), a long-term assay.

NOD/SCID mice [3] = assay: NOD/SCID transplantation assay: in vivo hematopoietic reconstitution by expanded CB cells; parameters: species or system mouse
Method: Immunodeficient nonobese diabetic/ltsz-scid/scid (NOD/SCID) mice were purchased from Jackson Laboratories (Bar Harbor, Me.) and transplantation assays were performed as described (Araki et al., 2009, Id.; Araki et al., 2007, Id.; Taswell, 1981, Id.). Equal number of primary CD34^+ cells or the progeny of an equal initial number of CD34^+ cells following culture were injected per mouse intravenously. Mice were sacrificed 8 weeks after transplantation, and bone marrow (BM) cells from each mouse were analyzed by flow cytometry to detect multilineage human cell engraftment.
Furthermore, hematopoietic stem cell potency of CMA-treated cord blood cells was evaluated in vivo by assaying hematopoietic repopulation potential of CD34^+ cells expanded with various CMAs. In these experiments, non-obese diabetic/severely combined immunodeficient (NOD/SCID) mice were transplanted with primary CD34^+ cells or the equivalent starting number of CD34^+ cells expanded in culture media supplemented by cytokines alone or in combination with 5azaD/TSA, VPA or 5azaD/VPA. […] Cells from cultures expanded with cytokines and VPA were capable of human hematopoietic engraftment in 2 out of 7 mice with a barely detectable level of chimerism (0.11%, 0.14%) (FIG. 2C).

NOD/SCID mice [4] = assay: Serial (secondary) transplantation of expanded CB cells; type: in vivo, mouse
LINE-1 = assay: Global DNA methylation (LINE-1) by pyrosequencing; type: cell-based, human; conditions: CD34+ cells at day 3 of culture; FIG. 6A
Method: DNA methylation analysis was performed by EpigenDx (Worcester, Mass.) using quantitative pyrosequencing and the PSQ-HS96 system according to standard procedures (Warren et al., 2010, Cell Stem Cell. 7: 618-630). Primers were developed for the CpG sites near the promoter area as detailed in Table 3. Briefly, genomic DNA was isolated from primary or CMA expanded enriched CD34^+ cells using the Blood and Cell Culture DNA kit (Qiagen, Valencia Calif.). Genomic DNA was bisulfite treated by an EZ Methylation Kit (Zymo Research, Irvine, Calif.), and biotinylated gene specific primers or long interspersed nucleotide element 1 (LINE-1) primers were used to amplify regions of interest for analysis as described (Bhatia et al., 1997, J Exp Med. 186: 619-624).
Global methylation of genomic DNA was quantified by assaying long interspersed nucleotide element 1 (LINE 1) methylation as a surrogate marker (Yang et al., 2004, Nucleic Acids Res. 32: e38). The degree of global methylation of CD34^+ cells prior to and following ex vivo culture in the presence or absence of CMAs (5azaD/TSA and VPA) was determined in these experiments. […] CD34^+ cells cultured in 5azaD/TSA and VPA had 55.4%±2.2% and 77.2%±2.0% methylation respectively at day 3 (FIG. 6A).

CCCC(CCC)C(=O)O [VPA, valproic acid]
cells co-expressing CD34+ and CD90+ ([1]; 9 days of culture, cytokines (SCF, Flt3-ligand, TPO, IL-3) plus CMA, FIG. 1A): 42.2%
fold expansion of CD34+CD90+ cells ([1]; 9 days of culture, cytokines plus CMA, FIG. 1B): 64.6±3.7 fold and 65 fold
CD34+CD90+ (%) ([1]; mean ± SEM of three independent experiments): 42.17 ± 13.45 %
fold expansion of primitive CFU-mix colonies ([2]; cytokines plus CMA, FIG. 2A): 13.3±4.7 fold
CFC PE (%) (Colony Forming Cell Plating Efficiency) [2]: 15.27%
CFC PE (%) (Colony Forming Cell Plating Efficiency) ([2]; listed as VPA Alone): 15.27 ± 3.66 %
regenerative capacity (in vivo hematopoietic reconstitution function) of expanded CD34+ cells (NOD/SCID mice [3]; Day 9 expanded CD34+ cells): possessing regenerative potential
multilineage differentiation of expanded cells following transplantation (NOD/SCID mice [3]; FIG. 2D): retained the ability to differentiate into both myeloid and lymphoid lineages
mice with human hematopoietic engraftment of mice transplanted (NOD/SCID mice [3]; cells expanded with cytokines plus CMA, i.v., analysed 8 weeks after transplantation, FIG. 2C): 2 out of 7
human hematopoietic chimerism (human CD45+ cells in mouse bone marrow) (NOD/SCID mice [3]; engrafted recipient mice, FIG. 2C): 0.11% and 0.14%
Secondary mouse BM chimerism (% human) (NOD/SCID mice [4]; 10-30 × 10^6 unseparated BM cells from primary mouse, sacrificed 7 weeks later, individual mice): Not Detectable
Primary mouse BM chimerism (% human) (NOD/SCID mice [4]; progeny of 1 × 10^4 primary CB cells treated ex vivo for 9 days, individual mice): 0.60 % human and 1.0 % human (2×) and 0.30 % human and 5.6 % human
secondary hosts engrafted (NOD/SCID mice [4]; serial transplantation from primary recipients): none of the 5
mean LINE 1 methylation (four CpG sites) (LINE-1): 77.2%
